In US11655235B2, “Pyrrolidine and piperidine compounds” (YUHAN CORPORATION, priority 2019, dated 2023):

Assays:
Type in all cases: biochemical
recombinant human DPP7 = biological target: T1, recombinant human DPP7 (Homo sapiens, UniProt Q9UHL4); test: DPP7 inhibition, fluorogenic substrate Lys-Pro-AMC; conditions: recombinant human DPP7
T1 construct: purchased R&D Systems
Method in brief: (§1)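 Inhibitors are titrated in an 8-point series into the enzyme's assay buffer (DMSO no more than 0.5%). Substrate cleavage at 25 °C is followed by fluorescence, excitation 380 nm and emission 460 nm. IC50 values come from a four-variable logistic model.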

recombinant human DPP9 = biological target: T2, recombinant human DPP9 (Homo sapiens, UniProt Q86TI2); test: DPP9 inhibition, fluorogenic substrate H-Gly-Pro-AMC; conditions: recombinant human DPP9
T2 construct: purchased R&D Systems
Method in brief: as §1

recombinant human PREP = biological target: T3, recombinant human PREP (Homo sapiens, UniProt P48147); test: PREP inhibition, fluorogenic substrate Z-Gly-Pro-AMC; conditions: Inhibitory Activity (IC50, nM) PREP, recombinant human PREP
T3 construct: purchased R&D System
T3 sequence (P48147 1-710): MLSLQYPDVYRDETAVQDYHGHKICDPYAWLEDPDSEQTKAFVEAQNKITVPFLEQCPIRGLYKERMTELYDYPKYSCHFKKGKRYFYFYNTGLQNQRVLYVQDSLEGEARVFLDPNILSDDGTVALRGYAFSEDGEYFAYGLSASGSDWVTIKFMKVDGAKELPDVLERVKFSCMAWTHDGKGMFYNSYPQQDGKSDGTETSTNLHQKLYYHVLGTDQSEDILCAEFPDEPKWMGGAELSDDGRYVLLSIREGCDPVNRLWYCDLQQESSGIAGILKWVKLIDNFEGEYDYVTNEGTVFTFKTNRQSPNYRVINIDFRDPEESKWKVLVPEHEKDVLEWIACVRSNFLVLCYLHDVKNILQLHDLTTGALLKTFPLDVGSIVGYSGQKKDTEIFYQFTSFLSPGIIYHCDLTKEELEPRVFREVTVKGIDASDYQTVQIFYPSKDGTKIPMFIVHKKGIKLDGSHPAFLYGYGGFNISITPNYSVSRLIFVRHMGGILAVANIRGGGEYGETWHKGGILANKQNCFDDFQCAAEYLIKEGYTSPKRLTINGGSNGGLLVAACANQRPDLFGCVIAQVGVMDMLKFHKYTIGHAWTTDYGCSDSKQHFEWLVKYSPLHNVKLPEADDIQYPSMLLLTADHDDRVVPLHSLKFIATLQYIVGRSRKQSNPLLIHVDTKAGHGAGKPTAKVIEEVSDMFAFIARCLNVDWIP
Method in brief: as §1

Recombinant human FAP = biological target: T4, Recombinant human FAP (Homo sapiens, UniProt Q12884); test: FAP FRET assay, FGF21-sequence FRET peptide substrate; conditions: FRET peptide with human FGF21 sequence, 6 μM, 37° C.
T4 construct: purchased R&D systems
T4 sequence (Q12884 1-760): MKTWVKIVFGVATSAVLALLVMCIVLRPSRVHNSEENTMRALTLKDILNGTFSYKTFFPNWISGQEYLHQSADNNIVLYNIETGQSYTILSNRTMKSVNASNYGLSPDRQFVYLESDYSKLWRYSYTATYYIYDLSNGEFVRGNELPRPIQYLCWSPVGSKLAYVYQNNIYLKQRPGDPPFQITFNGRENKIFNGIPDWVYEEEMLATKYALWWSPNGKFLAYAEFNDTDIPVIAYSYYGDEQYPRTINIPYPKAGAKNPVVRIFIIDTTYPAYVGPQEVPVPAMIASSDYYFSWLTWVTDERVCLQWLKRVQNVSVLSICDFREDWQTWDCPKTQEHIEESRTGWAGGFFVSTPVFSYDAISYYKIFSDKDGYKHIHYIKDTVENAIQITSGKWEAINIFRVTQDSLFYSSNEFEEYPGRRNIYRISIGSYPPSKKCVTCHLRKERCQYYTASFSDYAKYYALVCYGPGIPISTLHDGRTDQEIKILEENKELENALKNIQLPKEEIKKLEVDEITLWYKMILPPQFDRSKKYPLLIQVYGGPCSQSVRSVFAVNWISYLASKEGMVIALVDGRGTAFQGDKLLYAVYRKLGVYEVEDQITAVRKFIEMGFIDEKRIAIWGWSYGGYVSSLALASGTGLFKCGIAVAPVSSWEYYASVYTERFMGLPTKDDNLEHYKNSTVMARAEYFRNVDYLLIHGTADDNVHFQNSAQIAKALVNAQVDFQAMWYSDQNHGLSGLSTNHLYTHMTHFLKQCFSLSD
Method in brief: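 FRET peptide bearing human FGF21 sequence (6 μM final) cleaved by 10 ng recombinant human FAP at 37° C in HEPES pH 7.2 buffer with NaCl, BSA and EDTA, DMSO up to 0.1%. Signal-rate decrease versus uninhibited control fitted to a four-variable logistic model for IC50.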

DPP4 = DPP4 (Homo sapiens, UniProt P27487); test: DPP4 inhibition, fluorogenic substrate H-Gly-Pro-AMC; parameters: purchased R&D Systems; conditions: recombinant human DPP4
DPP4, sequence (P27487 whole entry): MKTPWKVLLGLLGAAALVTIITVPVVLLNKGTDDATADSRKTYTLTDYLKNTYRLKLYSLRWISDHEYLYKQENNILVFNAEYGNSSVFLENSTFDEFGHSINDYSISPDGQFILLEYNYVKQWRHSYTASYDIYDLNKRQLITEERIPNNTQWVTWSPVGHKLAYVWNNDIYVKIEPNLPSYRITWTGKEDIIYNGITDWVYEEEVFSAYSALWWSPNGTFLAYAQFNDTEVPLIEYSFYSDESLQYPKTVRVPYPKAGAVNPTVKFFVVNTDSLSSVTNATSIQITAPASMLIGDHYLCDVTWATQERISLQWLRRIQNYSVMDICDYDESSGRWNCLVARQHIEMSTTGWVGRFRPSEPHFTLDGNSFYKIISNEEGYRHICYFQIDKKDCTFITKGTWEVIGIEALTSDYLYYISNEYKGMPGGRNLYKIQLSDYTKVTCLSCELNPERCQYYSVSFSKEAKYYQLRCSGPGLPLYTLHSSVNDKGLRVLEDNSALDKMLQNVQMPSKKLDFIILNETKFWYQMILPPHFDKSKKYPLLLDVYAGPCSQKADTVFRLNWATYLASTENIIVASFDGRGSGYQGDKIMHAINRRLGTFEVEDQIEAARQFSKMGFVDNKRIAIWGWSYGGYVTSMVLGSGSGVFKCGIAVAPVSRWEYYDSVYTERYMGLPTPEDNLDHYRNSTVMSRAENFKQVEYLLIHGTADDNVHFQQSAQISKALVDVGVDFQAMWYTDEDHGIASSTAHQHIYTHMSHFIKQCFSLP

T2 sequence (Q86TI2 whole entry): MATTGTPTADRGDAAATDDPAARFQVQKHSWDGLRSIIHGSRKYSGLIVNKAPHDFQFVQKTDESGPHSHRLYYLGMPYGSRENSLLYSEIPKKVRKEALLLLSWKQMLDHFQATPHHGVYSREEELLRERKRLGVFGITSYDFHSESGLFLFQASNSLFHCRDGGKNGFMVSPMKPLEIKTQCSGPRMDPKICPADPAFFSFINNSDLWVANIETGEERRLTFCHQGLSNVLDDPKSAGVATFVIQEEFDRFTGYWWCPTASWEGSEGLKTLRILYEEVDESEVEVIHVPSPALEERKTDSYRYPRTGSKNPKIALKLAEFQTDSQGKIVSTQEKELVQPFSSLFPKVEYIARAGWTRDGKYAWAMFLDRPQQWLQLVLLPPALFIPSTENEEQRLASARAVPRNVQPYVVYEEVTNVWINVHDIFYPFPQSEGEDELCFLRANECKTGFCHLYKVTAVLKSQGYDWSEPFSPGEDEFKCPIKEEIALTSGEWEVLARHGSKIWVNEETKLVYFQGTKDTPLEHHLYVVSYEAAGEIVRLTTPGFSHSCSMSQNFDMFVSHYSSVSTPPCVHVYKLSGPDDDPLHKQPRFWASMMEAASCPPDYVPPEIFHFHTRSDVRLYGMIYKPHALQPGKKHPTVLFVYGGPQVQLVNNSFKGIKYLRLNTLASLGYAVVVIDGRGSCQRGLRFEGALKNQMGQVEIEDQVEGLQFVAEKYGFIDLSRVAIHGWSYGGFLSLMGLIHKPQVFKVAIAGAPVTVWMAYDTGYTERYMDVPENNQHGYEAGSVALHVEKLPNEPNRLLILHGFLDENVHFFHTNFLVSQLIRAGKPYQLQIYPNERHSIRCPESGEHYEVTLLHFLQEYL

Compound	IC50 (recombinant human DPP7)	IC50 (recombinant human DPP9)	IC50 (recombinant human PREP)	IC50 (Recombinant human FAP)	IC50 (DPP4)
Cc1cnc2ccc(N[C@@H]3CCN(CC(=O)N4C[C@@H](F)C[C@H]4C#N)C3)cc2c1 [Example 211, (2S,4S)-4-fluoro-1-[2-[(3R)-3-[(3-methyl-6-quinolyl)amino]pyrrolidin-1-yl]acetyl]pyrrolidine-2-carbonitrile]	369 nM	657 nM	2740 nM	5.2 nM	1800 nM
COc1ccnc2ccc(N[C@@H]3CCN(CC(=O)N4C[C@@H](F)C[C@H]4C#N)C3)cc12 [Example 212, (2S,4S)-4-fluoro-1-[2-[(3R)-3-[(4-methoxy-6-quinolyl)amino]pyrrolidin-1-yl]acetyl]pyrrolidine-2-carbonitrile]	206 nM	1160 nM	5230 nM	8 nM	1960 nM
Cc1cc(N[C@@H]2CCN(CC(=O)N3C[C@@H](F)C[C@H]3C#N)C2)cc2cccnc12 [Example 213, (2S,4S)-4-fluoro-1-[2-[(3R)-3-[(8-methyl-6-quinolyl)amino]pyrrolidin-1-yl]acetyl]pyrrolidine-2-carbonitrile]	393 nM	1390 nM	3020 nM	3.5 nM	1740 nM
N#C[C@@H]1C[C@H](F)CN1C(=O)CN1CC[C@@H](Nc2cc(F)c3ncccc3c2)C1 [Example 214, (2S,4S)-4-fluoro-1-[2-[(3R)-3-[(8-fluoro-6-quinolyl)amino]pyrrolidin-1-yl]acetyl]pyrrolidine-2-carbonitrile]	764 nM	970 nM	3030 nM	3.8 nM	1290 nM
N#C[C@@H]1C[C@H](F)CN1C(=O)CN1CC[C@@H](Nc2cc(Cl)c3ncccc3c2)C1 [Example 215, (2S,4S)-4-fluoro-1-[2-[(3R)-3-[(8-chloro-6-quinolyl)amino]pyrrolidin-1-yl]acetyl]pyrrolidine-2-carbonitrile]	544 nM	631 nM	3150 nM	1.5 nM	1160 nM
N#C[C@@H]1C[C@H](F)CN1C(=O)CN1CC[C@@H](Nc2cc(C(F)(F)F)c3ncccc3c2)C1 [Example 216, (2S,4S)-4-fluoro-1-[2-[(3R)-3-[[8-(trifluoromethyl)-6-quinolyl]amino]pyrrolidin-1-yl]acetyl]pyrrolidine-2-carbonitrile]	399 nM	822 nM	2560 nM	1.7 nM	1350 nM
CCOc1ccc(N[C@H]2CCN(CC(=O)N3CCC[C@H]3C#N)C2)c2cccnc12 [Example 274, (2S)-1-[2-[(3S)-3-[(8-ethoxy-5-quinolyl)amino]pyrrolidin-1-yl]acetyl]pyrrolidine-2-carbonitrile]	960 nM	5550 nM	14900 nM	4.4 nM	11000 nM
CCOc1ccc(N[C@H]2CCN(CC(=O)N3C[C@@H](F)C[C@H]3C#N)C2)c2cccnc12 [Example 275, (2S,4S)-4-fluoro-1-[2-[(3S)-3-[(8-ethoxy-5-quinolyl)amino]pyrrolidin-1-yl]acetyl]pyrrolidine-2-carbonitrile]	90.4 nM	1590 nM	6120 nM	1.7 nM	1430 nM
N#C[C@@H]1C[C@H](F)CN1C(=O)CN1CC[C@H](Nc2ccc(O)c3ncccc23)C1 [Example 276, (2S,4S)-4-fluoro-1-[2-[(3S)-3-[(8-hydroxy-5-quinolyl)amino]pyrrolidin-1-yl]acetyl]pyrrolidine-2-carbonitrile]	3490 nM	5330 nM	3030 nM	14 nM	977 nM
Cc1cc(N[C@H]2CCN(CC(=O)N3C[C@@H](F)C[C@H]3C#N)C2)cc2cccnc12 [Example 277, (2S,4S)-4-fluoro-1-[2-[(3S)-3-[(8-methyl-6-quinolyl)amino]pyrrolidin-1-yl]acetyl]pyrrolidine-2-carbonitrile]	193 nM	740 nM	1230 nM	3 nM	1040 nM
N#C[C@@H]1C[C@H](F)CN1C(=O)CN1CC[C@H](Nc2cc(F)c3ncccc3c2)C1 [Example 278, (2S,4S)-4-fluoro-1-[2-[(3S)-3-[(8-fluoro-6-quinolyl)amino]pyrrolidin-1-yl]acetyl]pyrrolidine-2-carbonitrile]	615 nM	593 nM	1280 nM	3.5 nM	610 nM
N#C[C@@H]1C[C@H](F)CN1C(=O)CN1CC[C@H](Nc2cc(Cl)c3ncccc3c2)C1 [Example 279, (2S,4S)-4-fluoro-1-[2-[(3S)-3-[(8-chloro-6-quinolyl)amino]pyrrolidin-1-yl]acetyl]pyrrolidine-2-carbonitrile]	398 nM	614 nM	637 nM	1.5 nM	254 nM
N#C[C@@H]1C[C@H](F)CN1C(=O)CN1CC[C@H](Nc2cc(C(F)(F)F)c3ncccc3c2)C1 [Example 280, (2S,4S)-4-fluoro-1-[2-[(3S)-3-[[8-(trifluoromethyl)-6-quinolyl]amino]pyrrolidin-1-yl]acetyl]pyrrolidine-2-carbonitrile]	184 nM	674 nM	970 nM	2.1 nM	839 nM
CN(C)C(=O)c1ccc(N[C@H]2CCN(CC(=O)N3C[C@@H](F)C[C@H]3C#N)C2)c2cccnc12 [Example 282, N,N-dimethyl-5-[[(3S)-1-[2-oxo-2-[(2S,4S)-2-cyano-4-fluoro-pyrrolidin-1-yl]ethyl]pyrrolidin-3-yl]amino]quinoline-8-carboxamide]	241 nM	4850 nM	5060 nM	5.8 nM	3470 nM
CN(C(=O)c1ccc(N[C@H]2CCN(CC(=O)N3C[C@@H](F)C[C@H]3C#N)C2)c2cccnc12)c1ccccc1 [Example 284, N-methyl-N-phenyl-5-[[(3S)-1-[2-oxo-2-[(2S,4S)-2-cyano-4-fluoro-pyrrolidin-1-yl]ethyl]pyrrolidin-3-yl]amino]quinoline-8-carboxamide]	932 nM	1640 nM	574 nM	10.6 nM	2390 nM
CN(Cc1ccccc1)C(=O)c1ccc(N[C@H]2CCN(CC(=O)N3C[C@@H](F)C[C@H]3C#N)C2)c2cccnc12 [Example 285, N-benzyl-N-methyl-5-[[(3S)-1-[2-oxo-2-[(2S,4S)-2-cyano-4-fluoro-pyrrolidin-1-yl]ethyl]pyrrolidin-3-yl]amino]quinoline-8-carboxamide]	333 nM	1080 nM	2450 nM	3.9 nM	2500 nM
CN(Cc1ccccc1)C(=O)c1ccc(N[C@H]2CCN(CC(=O)N3CCC[C@H]3C#N)C2)c2cccnc12 [Example 288, N-benzyl-N-methyl-5-[[(3S)-1-[2-oxo-2-[(2S)-2-cyanopyrrolidin-1-yl]ethyl]pyrrolidin-3-yl]amino]quinoline-8-carboxamide]	677 nM	1210 nM	11400 nM	14 nM	18500 nM
